Strand notation (5' to 3'): a small letter for the sugar, then the base; units joined by * are phosphorothioate-linked, units joined directly phosphodiester-linked; [ ] holds rarer units or linkages, { } end groups; capitals alone tell only the bases. [ms] = mesyl phosphoramidate linkage; e = 2'-O-(2-methoxyethyl) (MOE); k = constrained ethyl (cEt); [5mC] = 5-methylcytosine; d = 2'-deoxy (DNA)
How the values were obtained:
human APOE RNA [1] = assay: Dose-dependent inhibition of human APOE RNA in HepG2 cells, electroporation, 50,000 cells per well, RT-PCR normalized to GAPDH (Example 4, Tables 8-10); assay type: cell-based; details: for APOE RNA (% UTC) 1,280 nM: 24-hour treatment, 1,280 nM; for APOE RNA (% UTC) 3,200 nM: 24-hour treatment, 3,200 nM; for APOE RNA (% UTC) 8,000 nM: 24-hour treatment, 8,000 nM; for APOE RNA (% UTC) 20,000 nM: 24-hour treatment, 20,000 nM
Outline: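 HepG2 cells, 50,000 per well, electroporated with modified oligonucleotide at various concentrations. APOE RNA quantified by RT-PCR with human primer probe set RTS3073, normalized to GAPDH. Values are percent APOE RNA relative to untreated control cells.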

human APOE RNA [2] = assay: Activity in APOE C57BL/6NTac-Apoeem7250 knock-in mice, single ICV bolus, 20 weeks (Example 13); assay type: in vivo; details: single ICV bolus 300 μg, 20 weeks post treatment, normalized to mouse Ppia
Outline: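 Knock-in mice (n=4) given a single ICV bolus of 300 μg oligonucleotide, PBS as control. After 20 weeks, human APOE RNA in cortex and spinal cord measured by RT-qPCR, normalized to mouse Ppia, expressed as % of PBS-treated animals.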

human APOE RNA [3] = assay: Activity in APOE C57BL/6NTac-Apoeem7250 knock-in mice, single ICV bolus, 16 weeks (Example 12); assay type: in vivo; details: single ICV bolus 300 μg, 16 weeks post treatment, normalized to mouse Ppia
Outline: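 Knock-in mice (3-4 per group) received one ICV bolus of 300 μg oligonucleotide, PBS as control. After 16 weeks, human APOE RNA in cortex and spinal cord measured by RT-qPCR, normalized to mouse Ppia, and reported as % of PBS control.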

[4] = HepG2 cells, electroporation, 24-hour treatment, 5 nM, Table 8
[5] = HepG2 cells, electroporation, 24-hour treatment, 13 nM, Table 8
[6] = HepG2 cells, electroporation, 24-hour treatment, 33 nM, Table 8
[7] = HepG2 cells, electroporation, 24-hour treatment, 82 nM, Table 8
[8] = HepG2 cells, electroporation, 24-hour treatment, 205 nM, Table 8
[9] = HepG2 cells, electroporation, 24-hour treatment, 512 nM, Table 8
[10] = HepG2 cells, electroporation, Table 8
[11] = reduction of human APOE RNA, HepG2 cells, electroporation, 24-hour treatment, Table 8

Row | Substance | APOE RNA (% UTC) 5 nM (human APOE RNA [1]; [4]) | APOE RNA (% UTC) 13 nM (human APOE RNA [1]; [5]) | APOE RNA (% UTC) 33 nM (human APOE RNA [1]; [6]) | APOE RNA (% UTC) 82 nM (human APOE RNA [1]; [7]) | APOE RNA (% UTC) 205 nM (human APOE RNA [1]; [8]) | APOE RNA (% UTC) 512 nM (human APOE RNA [1]; [9]) | APOE RNA (% UTC) 1,280 nM (human APOE RNA [1]; [10]) | APOE RNA (% UTC) 3,200 nM (human APOE RNA [1]; [10]) | APOE RNA (% UTC) 8,000 nM (human APOE RNA [1]; [10]) | APOE RNA (% UTC) 20,000 nM (human APOE RNA [1]; [10]) | IC50 (human APOE RNA [1]; [11]) | APOE RNA (% control) Cortex (human APOE RNA [2]) | APOE RNA (% control) Spinal Cord (human APOE RNA [2]) | APOE RNA (% control) Cortex (human APOE RNA [3]) | APOE RNA (% control) Spinal Cord (human APOE RNA [3]) | further results
1 | 1778128: modified oligonucleotide complementary to human APOE RNA (eA*e[5mC]eTeTkGkG*dT*dG[ms]dA[ms]dA*dT*d[5mC]*dT*dT*dT*dA[ms]kTeT*eA*eA; antisense) [compound 1778128] | 81 % UTC | 83 % UTC | 66 % UTC | 53 % UTC | 39 % UTC | 28 % UTC | 22 % UTC | 9 % UTC | 8 % UTC | 5 % UTC | 100 nM | 60 % control | 22 % control | 34 % control | 22 % control | –
2 | 1757575 (eA*e[5mC]eTeT*kG*kG*dT*dG[ms]dA[ms]dA[ms]dT*d[5mC]*dT*dT*dT*dA[ms]kT*eT*eA*eA; antisense) [Compound 1757575] | – | – | – | – | – | – | – | – | – | – | – | 39 % control | 88 % control | 33 % control | 21 % control | APOE RNA (% UTC) (human APOE RNA [1]; 5 nM, HepG2, electroporation, 16-hour treatment): 84 % UTC; APOE RNA (% UTC) (human APOE RNA [1]; 13 nM, HepG2, electroporation, 16-hour treatment): 80 % UTC; APOE RNA (% UTC) (human APOE RNA [1]; 33 nM, HepG2, electroporation, 16-hour treatment): 87 % UTC; APOE RNA (% UTC) (human APOE RNA [1]; 82 nM, HepG2, electroporation, 16-hour treatment): 78 % UTC; APOE RNA (% UTC) (human APOE RNA [1]; 205 nM, HepG2, electroporation, 16-hour treatment): 81 % UTC; APOE RNA (% UTC) (human APOE RNA [1]; 512 nM, HepG2, electroporation, 16-hour treatment): 51 % UTC; APOE RNA (% UTC) (human APOE RNA [1]; 1,280 nM, HepG2, electroporation, 16-hour treatment): 44 % UTC; APOE RNA (% UTC) (human APOE RNA [1]; 3,200 nM, HepG2, electroporation, 16-hour treatment): 37 % UTC; APOE RNA (% UTC) (human APOE RNA [1]; 8,000 nM, HepG2, electroporation, 16-hour treatment): 25 % UTC; APOE RNA (% UTC) (human APOE RNA [1]; 20,000 nM, HepG2, electroporation, 16-hour treatment): 15 % UTC; IC50 (human APOE RNA [1]; HepG2, electroporation, 16-hour treatment): 940 nM
3 | 1778130: modified oligonucleotide complementary to human APOE RNA (eA*e[5mC]eTeTeG*kG*dT*dG[ms]dA[ms]dA*dT*d[5mC]*dT*dT*dT*dA[ms]kTkT*eA*eA; antisense) [compound 1778130] | 100 % UTC | 106 % UTC | 93 % UTC | 75 % UTC | 61 % UTC | 44 % UTC | 26 % UTC | 19 % UTC | 10 % UTC | 6 % UTC | 400 nM | 48 % control | 19 % control | 34 % control | 15 % control | –
4 | 1785617: modified oligonucleotide complementary to human APOE RNA (k[5mC]*dT[ms]dT[ms]kG*dG[ms]kT*dG[ms]dA[ms]dA[ms]dT[ms]d[5mC]*dT*dT*dT*dA*dT*kT*kA*dA[ms]kA; antisense) [compound 1785617] | 91 % UTC | 104 % UTC | 93 % UTC | 83 % UTC | 93 % UTC | 50 % UTC | 47 % UTC | 18 % UTC | 27 % UTC | 11 % UTC | 950 nM | 61 % control | 38 % control | 37 % control | 28 % control | –
5 | 1778131: modified oligonucleotide complementary to human APOE RNA (eA*e[5mC]eTeTeGkG*dT*dG[ms]dA[ms]dA*dT*d[5mC]*dT*dT*dT*dA[ms]kTkT*eA*eA; antisense) [compound 1778131] | 104 % UTC | 117 % UTC | 101 % UTC | 78 % UTC | 71 % UTC | 50 % UTC | 35 % UTC | 28 % UTC | 7 % UTC | 5 % UTC | 630 nM | 65 % control | 43 % control | 34 % control | 17 % control | –
6 | 1785598: modified oligonucleotide complementary to human APOE RNA (k[5mC]*kT*kT*dG[ms]dG[ms]dT[ms]dG[ms]dA[ms]dA[ms]dT*d[5mC]*dT*dT*dT*dA*dT[ms]kT*kA*dA[ms]kA; antisense) [compound 1785598] | 112 % UTC | 109 % UTC | 110 % UTC | 95 % UTC | 70 % UTC | 73 % UTC | 33 % UTC | 21 % UTC | 8 % UTC | 9 % UTC | 840 nM | 72 % control | 30 % control | 36 % control | 24 % control | –
7 | 1778111: modified oligonucleotide complementary to human APOE RNA (eA*e[5mC]eTeTeG*kG*dT*dG[ms]dA[ms]dA*dT*d[5mC]*dT*dT*dT*dA[ms]eTeT*eA*eA; antisense) [compound 1778111] | 75 % UTC | 96 % UTC | 73 % UTC | 61 % UTC | 53 % UTC | 44 % UTC | 27 % UTC | 17 % UTC | 12 % UTC | 9 % UTC | 240 nM | 59 % control | 25 % control | 49 % control | 27 % control | –
8 | 1693105: 6-10-4 MOE gapmer CTTGGTGAATCTTTATTAAA, linkages sosssszzzssssszssss (e[5mC]*eTeT*eG*eG*eT*dG[ms]dA[ms]dA[ms]dT*d[5mC]*dT*dT*dT*dA[ms]dT*eT*eA*eA*eA) [compound 1693105] | – | – | – | – | – | – | – | – | – | – | – | – | – | 65 % control | 44 % control | –
